Data: patent US12637487B2 (priority 2017, dated 2026)
Entries after “also recorded” stand apart in the source; their conditions may differ.

What was measured:
virus = assay: Antiviral effect of AA011 and VK021 alone; type: cell-based
[1] = at 1000 μM
[2] = tested on: Hepatitis C virus (HCV type 2a, JFH1-Luc virus strain); assay: MD36792 experiment against hepatitis C virus (Rluc reporter, Huh7.5.1 cells); type: cell-based
ICR mice = assay: Acetic acid-induced twisting (writhing) model, analgesic effect; type: in vivo; conditions: for Twisting Number Mean: 1 hour before 0.8% acetic acid i.p., 10 mice; for analgesic effect: acetic acid-induced model, mice
Description: Experimental method: Animals were adaptively fed for 5 days, and the body weight of the mice was weighed. […] The mice assigned to MD36792 group and the positive control group were given the corresponding drugs. After 1 hour of administration, the mice in each group were intraperitoneally injected with 0.8% acetic acid (0.2 mL/head). The twisting number of the mice were observed and recorded within 15 minutes.

[3] = tested on: Human Immunodeficiency Virus (HIV); assay: MD36792 experiments against human immunodeficiency virus (MT-4 cell protection); type: cell-based; conditions: MT-4 cells, LAI virus
Description: • 1. […] Cell: MT4 cells. • 3. Virus: Human Immunodeficiency Virus (HIV). • 4. Experimental reagents: RPMI-1640 medium, CellTiter-Glo detection kit (Promega) and other experimental reagents.
Experimental principle: MT-4 cell protection experiments were used to detect compounds against viruses.
Experimental steps: A 3-fold diluted drug was added to a 96-well plate, which incubates the LAI virus and MT-4 cells and inoculates it into the well plate. After culture, when the virus infects the control wells, a significant CPE appears. Reagent CellTiter-Glo was added and mixed, then the chemiluminescence signal is to be detected.
The experiment set the cell control (uninfected cell control), virus control, and positive drug control (Zidovudine, AZT).

HCV virus = assay: In vitro efficacy of MD36792 and combination with AA011 and VK021 on HCV virus; type: cell-based
[4] = tested on: Ebola virus infected people; type: in vivo, human; conditions: 20 Ebola-infected patients (Africa), dicycloplatin alone i.v., 1-3 weeks
HIV-infected individuals = tested on: HIV-infected individuals; parameters: species or system human; conditions: in vivo
cancer patients = assay: Effect of dicycloplatin on pain in cancer patients (Table 5); type: in vivo, human; conditions: for pain, 5th day / pain, 17th day / pain, 31st day, then stop taking: 150 mg i.v. drip once every two days; for pain, 60th-90th (without using DCP ): after stopping
Description: Among cancer patients, it is suitable especially to patients with advanced liver cancer, kidney cancer, bone metastases, brain metastases and bone cancer. […] Some patients stopped using dicycloplatin after a certain course of dicycloplatin treatment, and no pain occurred again.
Dose of the above cancer patients is taken once every two days, 150 mg/5% glucose aqueous solution is dripped intravenously.

Hepatitis B virus (HBV) = assay: MD36792 experiment against hepatitis B virus (HBeAg/HBsAg ELISA, HepAD38 cells); type: cell-based; conditions: 72 hours, from 333 μM
[5] = tested on: patients with hepatitis C; assay: Dicycloplatin alone in hepatitis C patients; type: in vivo, human; conditions: 9 patients with hepatitis C, 1-3 months
cells = assay: Toxicity to the cells in the HCV combination study; type: cell-based; conditions: toxic CC50 to the cells; start concentration 200 μg/ml MD36792, 4 X dilution
tumor patients = assay: Effect of dicycloplatin on tumor-induced tissue edema and inflammation; type: in vivo, human
Ebola virus = type: cell-based
HBV patients = assay: Dicycloplatin alone in hepatitis B patients; type: in vivo, human; conditions: 12 hepatitis B patients, 1-3 months
[6] = at 1000 μM and 250 μM concentration
[7] = Lung cancer to bone metastasis 5 cases
[8] = Lung cancer to brain metastasis 2 cases

For C[C@@]1(O)[C@H](O)[C@@H](CO)O[C@H]1n1ccc(N)nc1=O [2'CMC, reference compound], the antiviral effect (virus; positive drug, better as the dose increases) was “good antiviral effect”.
For N[C@@H](CCC(=O)N[C@@H](CS)C(=O)NCC(=O)O)C(=O)O [AA011, glutathione], the antiviral effect (virus; [6]) was “certain antiviral effect” and the cytotoxicity [1] was “no obvious cytotoxicity”.
With NC(=O)c1ncn([C@@H]2O[C@H](CO)[C@@H](O)[C@H]2O)n1 [Ribavirin, reference compound] the “inhibitory effect on HCV” value [2] was “significant inhibitory effect”.
With COc1cc2c(cc1OC)[C@@H]1Cc3ccc(OC)c(OC)c3CN1CC2 [Rotundine, reference compound] the “Twisting Number Mean” value (ICR mice; 100 mg/kg, counted within 15 minutes) was 2.8, the “number of writhing compared with the model group” value (ICR mice; 100 mg/kg, P=0.000) was “statistically significantly suppressed” and the analgesic effect (ICR mice) was “significant analgesic effects”.
With O=C1O[C@H]([C@@H](O)CO)C(O)=C1O [VK021, vitamin C] the antiviral effect (virus; [6]) was “certain antiviral effect”.
With Cc1cn([C@H]2C[C@H](N=[N+]=[N-])[C@@H](CO)O2)c(=O)[nH]c1=O [zidovudine, Zidovudine, reference compound] the “inhibitory effect on HIV infection” value [3] was “significant inhibitory effect”.
In the case of Dicycloplatin [MD36792], the “SI (selection index of the antiviral effect)” value (HCV virus) is reported as 4.44, the EC50 (HCV virus; start concentration 200 μg/ml MD36792, 4 X dilution) is reported as 15.62 µg/mL and the “inhibitory effect on HIV infection” value [3] is reported as “no inhibitory effect”. For the same compound, the “dose relation of analgesic effects” value (ICR mice; 10, 20, 40 mg/kg) was “dose-independent”, the “Twisting Number Mean” value (ICR mice; High dose 40 mg/kg, within 15 minutes) was 8.7 and the “Twisting Number Mean” value (ICR mice; Low dose 10 mg/kg, within 15 minutes) was 15.2. For the same compound, the “Twisting Number Mean” value (ICR mice; Middle dose 20 mg/kg, within 15 minutes) was 14.8, the analgesic effect (ICR mice) was “significant analgesic effects” and the analgesic effect (ICR mice; listed as dicycloplatin) was “significant analgesic effect”. For the same compound, the “number of writhing compared with the model group” value (ICR mice; high-dose group (40 mg/kg), P=0.009) was “statistically significantly suppressed”, the control or remission [4] was “without any control or remission” and the virus index [4] was “None of the patients showed a downward trend”. The liver function (HIV-infected individuals) was “did not improve”, the viral index (HIV-infected individuals; po) was “none showed a downward trend” and the “pain, 5th day” value (cancer patients; Bone cancer 3 cases) was “Pain gone”. The “pain, 17th day” value (cancer patients; Bone cancer 3 cases) was “No pain”, the “pain, 31st day, then stop taking” value (cancer patients; Bone cancer 3 cases) was “No pain” and the “pain, 60th-90th (without using DCP )” value (cancer patients; Bone cancer 3 cases) was “No pain”. For the same compound, the “pain, 5th day” value (cancer patients; Kidney cancer 1 case) was “Pain relieved”, the “pain, 17th day” value (cancer patients; Kidney cancer 1 case) was “Pain gone” and the “pain, 31st day, then stop taking” value (cancer patients; Kidney cancer 1 case) was “No pain”. For the same compound, the “pain, 60th-90th (without using DCP )” value (cancer patients; Kidney cancer 1 case) was “No pain”, the “pain, 5th day” value (cancer patients; Liver cancer 5 cases) was “Pain gone” and the “pain, 17th day” value (cancer patients; Liver cancer 5 cases) was “No pain”. For the same compound, the “pain, 31st day, then stop taking” value (cancer patients; Liver cancer 5 cases) was “No pain”, the “pain, 60th-90th (without using DCP )” value (cancer patients; Liver cancer 5 cases) was “No pain” and the “pain, 5th day” value (cancer patients; [7]) was “Pain gone”. The “pain, 17th day” value (cancer patients; [7]) was “No pain”, the “pain, 31st day, then stop taking” value (cancer patients; [7]) was “No pain” and the “pain, 60th-90th (without using DCP )” value (cancer patients; [7]) was “No pain”. For the same compound, the “pain, 5th day” value (cancer patients; [8]) was “Pain gone”, the “pain, 17th day” value (cancer patients; [8]) was “No pain” and the “pain, 31st day, then stop taking” value (cancer patients; [8]) was “No pain”. The “pain, 60th-90th (without using DCP )” value (cancer patients; [8]) was “No pain”, the “treatment of pain caused by cancer” value (cancer patients; cancer patients, dicycloplatin injection or oral as the only treatment) was “significant effect; also recorded: significant efficacy” and the “inhibitory effect on the expression of HBeAg (e antigen) of HBV” value (Hepatitis B virus (HBV)) was “no inhibitory effect”. For the same compound, the “inhibitory effect on the expression of HBsAg (surface antigen) of HBV” value (Hepatitis B virus (HBV)) was “no inhibitory effect”, the virus index ([5]; dicycloplatin alone 150 mg once every two days) was “None of the patients showed a downward trend” and the liver function ([5]; dicycloplatin alone) was “did not improve”. The CC50 (cells) was 69.4 µg/mL, the hepatic tissue edema (tumor patients; liver cancer patients, infusion or oral administration for a period of time) was “significantly disappeared or reduced” and the “tissue edema in the brain caused by cancer metastasis” value (tumor patients; lung cancer patients with brain metastases, oral or injection, one to two weeks) was “basically eliminated”. The “inhibitory effect on Ebola virus infection” value (Ebola virus) was “no inhibitory effect”, the “inhibitory effect on HCV” value [2] was “no inhibitory effect” and the EC50 ([2]; 72 hours, read-out: EC50 (50% inhibition) of HCV) was 121 µM. For the same compound, the virus index (HBV patients; dicycloplatin alone 150 mg once every two days (i.v. drip or oral)) was “None of the patients showed a downward trend” and the liver function (HBV patients; dicycloplatin alone) was “did not improve”.
